The record followed here is patent US4771055A, “7-[[3-(aminomethyl)-3-alkyl]-1-pyrrolidinyl]-quinoline-carboxylic acids” (Warner-Lambert Company, priority 1987, dated 1988).

Values after ≈ are worked out from the molar mass of the structure shown. Where two headings read alike, the source gives them in different places. Some results are limits rather than exact numbers.

One experiment concerns S. pyog. Nature of the experiment: Acute mouse protection test (PD50). The format is in vivo. The settings on record: mice, read-out: Protective Dose 50% PD50. Here is the method: (§1) The advantage of the compounds of the present invention has been observed when tested orally and compared to a standard quinolone where the 7-position contains a corresponding 3-aminomethylpyrrolidinyl group without the additional 3-alkyl or cycloalkyl substituent.
(§2) Therapeutic activities of the compounds were compared to acute mouse protection tests in which 18- to 22-g female Charles River CD-1 mice were used. Oral or subcutaneous doses in twofold rising incremental series were administered concurrently with bacterial challenge. Challenges were accomplished by the intraperitoneal injection of an estimated 100 medial lethal doses in 0.5 ml volumes of 5% hog gastric mucin or tryptic soy broth. Generally, >90% of the untreated controls died within 48 to 72 hours. Final survival percentages, obtained after four to seven days of observation among groups of 8 to 16 mice, were pooled and used to estimate median protective doses (PD50) by the log-probit method. Ideally a PO/SC ratio for a therapeutically relevant antibacterial should be ≤5. Table 2 indicates the improvement in PO/SC ratio.

For another experiment, the system named is S. aureus. Nature of the experiment: Acute mouse protection test (PD50). It counts as in vivo. The settings on record: Staphylococcus aureus, mice, read-out: Protective Dose 50% PD50. Here is the method:
as §1, §2

The next experiment concerns E. coli. Briefly: Acute mouse protection test (PD50). It counts as in vivo. The settings on record: Escherichia coli, mice, read-out: Protective Dose 50% PD50. Here is the method:
as §1, §2

In another experiment the test system is P. aerug. Briefly: Acute mouse protection test (PD50). The settings on record: mice, read-out: Protective Dose 50% PD50. It counts as in vivo. Here is the method:
as §1, §2

Experiment [1] relates to Enterobacter cloacae MA 2646. Nature of the experiment: In vitro antibacterial activity, MIC, microtitration dilution method. The format is cell-based. The settings on record: MA2646, read-out: Minimal Inhibitory Concentration MIC. An excerpt: (§3) The compounds of the invention display potent antibacterial activity against both gram-positive and -negative bacteria when tested by the microtitration dilution method as described in Heifetz, et al, Antimicr. Agents & Chemoth., 6, 124 (1974), which is incorporated herein by reference.

For the next experiment, the system named is Proteus rettgeri M 1771. The description is as above. It counts as cell-based. The settings on record: Providencia rettgeri, M1771, read-out: Minimal Inhibitory Concentration MIC.
From the text: as §3

The test system of experiment [2] is Pseudomonas aeruginosa UI-18. The experiment is described as above. The settings on record: UI18, read-out: Minimal Inhibitory Concentration MIC. The format is cell-based.
From the text: as §3

The subject of experiment [3] is Staphylococcus aureus UC-76. Described as above. It counts as cell-based. The settings on record: UC76, read-out: Minimal Inhibitory Concentration MIC.
From the text: as §3

In experiment [4] the test system is Klebsiella pneumoniae MGH-2. The description is as above. The format is cell-based. The settings on record: MGH2, read-out: Minimal Inhibitory Concentration MIC.
From the text: as §3

Experiment [5] has as its system Streptococcus pyogenes C-203. Described as above. The format is cell-based. The settings on record: C203, read-out: Minimal Inhibitory Concentration MIC.
From the text: as §3

Experiment [6] has as its system Streptococcus pneumoniae SV-1. The experiment is described as above. It counts as cell-based. The settings on record: SV1, read-out: Minimal Inhibitory Concentration MIC.
From the text: as §3

In experiment [7] the test system is Streptococcus faecalis MGH-2. Described as above. The format is cell-based. The settings on record: Enterococcus faecalis, MGH2, read-out: Minimal Inhibitory Concentration MIC.
From the text: as §3

A further experiment concerns Escherichia coli Vogel. Described as above. The settings on record: read-out: Minimal Inhibitory Concentration MIC. The format is cell-based.
From the text: as §3

Experiment [8] deals with Staphylococcus aureus H 228. The experiment is described as above. The format is cell-based. The settings on record: H228, read-out: Minimal Inhibitory Concentration MIC.
From the text: as §3

In experiment [9] the test system is E. coli, P. aerug., S. aureus, S. pyog. Briefly: Acute mouse protection test, oral versus subcutaneous activity over all organisms. It counts as in vivo, mice. The settings on record: for PO/SC Ratio: ratio of PD50 PO to PD50 SC over the four organisms, mice. Here is the method:
as §1, §2

Experiment [10] relates to gram-positive and -negative bacteria. Nature of the experiment: In vitro antibacterial activity, microtitration dilution method (overall). It counts as cell-based. The settings on record: comparison with Compound A.
From the text: as §3

Regarding `NCC1CCN(c2c(F)cc3c(=O)c(C(=O)O)cn(C4CC4)c3c2F)C1` (stereo not shown) [Compound A, 7-[3-(aminomethyl)-1-pyrrolidinyl]-1-cyclopropyl-6,8-difluoro-1,4-dihydro-4-oxo-3-quinolinecarboxylic acid, reference compound], the ED50 with S. pyog. (PO) was determined as 4 mg/kg; in the experiment on S. pyog. (SC), 0.4 mg/kg; with S. aureus (PO), 10 mg/kg; with S. aureus (SC) it was 1 mg/kg; with E. coli (PO) it was 13 mg/kg; with E. coli (SC), 1 mg/kg. Besides, the ED50 in the experiment with P. aerug. (PO) is over 100 mg/kg; in the experiment on P. aerug. (SC), 3 mg/kg. Further, the MIC is 0.8 µg/mL (≈ 2.2 µM) in experiment [1]; 0.8 µg/mL (≈ 2.2 µM) in the experiment on Proteus rettgeri M 1771; 0.8 µg/mL (≈ 2.2 µM) in [2]; 0.013 µg/mL (≈ 0.0358 µM) in experiment [3]; 0.4 µg/mL (≈ 1.1 µM) in [4]; 0.012 µg/mL (≈ 0.033 µM) in experiment [5]. In addition, the MIC in [6] worked out at 0.012 µg/mL (≈ 0.033 µM); in experiment [7] it was 0.1 µg/mL (≈ 0.275 µM); in the experiment with Escherichia coli Vogel, 0.2 µg/mL (≈ 0.55 µM); in experiment [8], 0.1 µg/mL (≈ 0.275 µM). The “PO/SC Ratio” value in experiment [9] is reported as at least 10.

Turning to `CC1(CN)CCN(c2c(F)cc3c(=O)c(C(=O)O)cn(C4CC4)c3c2F)C1` (stereo not shown) [Example 1, 7-[[3-(Aminomethyl)-3-methyl]-1-pyrrolidinyl]-1-cyclopropyl-6,8-difluoro-1,4-dihydro-4-oxo-3-quinolinecarboxylic acid], the ED50 is 9 mg/kg in the experiment on S. pyog. (PO); 3 mg/kg in the experiment on S. pyog. (SC); 5 mg/kg in the experiment on S. aureus (PO); 2 mg/kg in the experiment on S. aureus (SC); 2 mg/kg with E. coli (PO); 1 mg/kg in the experiment with E. coli (SC). The figures for the ED50 in the experiment on P. aerug. (PO) and with P. aerug. (SC) were 38 mg/kg and 18 mg/kg, respectively. The “in vitro activity compared to Compound A” value in experiment [10] is on record as “comparable in vitro activity”. Moreover, the MIC was 0.025 µg/mL (≈ 0.0662 µM) in [1]; 0.2 µg/mL (≈ 0.53 µM) in the experiment on Proteus rettgeri M 1771; 0.4 µg/mL (≈ 1.06 µM) in experiment [2]; at most 0.003 µg/mL in experiment [3]; 0.1 µg/mL (≈ 0.265 µM) in experiment [4]; 0.025 µg/mL (≈ 0.0662 µM) in [5]. The MIC in [6] was 0.006 µg/mL (≈ 0.0159 µM); in experiment [7], 0.013 µg/mL (≈ 0.0344 µM); in the experiment with Escherichia coli Vogel, 0.05 µg/mL (≈ 0.132 µM); in experiment [8] it was 0.013 µg/mL (≈ 0.0344 µM). Further, in [9] (PD50, mouse protection, comparison with Compound A), the “oral activity in mice compared to Compound A” value is on record as “greater oral activity in mice”. In experiment [9], the “PO/SC Ratio” value was at most 3.

`CC1(CN)CCN(c2c(F)c(N)c3c(=O)c(C(=O)O)cn(C4CC4)c3c2F)C1` (stereo not shown) [Example 2, 5-Amino-7-[[3-(aminomethyl)-3-methyl]-1-pyrrolidinyl]-1-cyclopropyl-6,8-difluoro-1,4-dihydro-4-oxo-3-quinolinecarboxylic acid]: the MIC in experiment [1] was 0.1 µg/mL (≈ 0.255 µM); with Proteus rettgeri M 1771, 0.4 µg/mL (≈ 1.02 µM); in experiment [2], 0.8 µg/mL (≈ 2.04 µM); in experiment [3] it was at most 0.003 µg/mL; in experiment [4] it was 0.1 µg/mL (≈ 0.255 µM); in experiment [5], 0.013 µg/mL (≈ 0.0331 µM). Also, the MIC in experiment [6] is at most 0.003 µg/mL; in experiment [7] it was 0.025 µg/mL (≈ 0.0637 µM); in the experiment on Escherichia coli Vogel, 0.1 µg/mL (≈ 0.255 µM); in experiment [8] it was 0.013 µg/mL (≈ 0.0331 µM).

As to `CC1(CN)CCN(c2nc3c(cc2F)c(=O)c(C(=O)O)cn3C2CC2)C1` (stereo not shown) [Example 3, 7-[[3-(Aminomethyl)-3-methyl]-1-pyrrolidinyl]-1-cyclopropyl-6-fluoro-1,4-dihydro-4-oxo-1,8-naphthyridine-3-carboxylic acid], the MIC in experiment [1] is 0.1 µg/mL (≈ 0.277 µM); in the experiment on Proteus rettgeri M 1771, 0.8 µg/mL (≈ 2.22 µM); in experiment [2] it was 0.8 µg/mL (≈ 2.22 µM); in experiment [3] it was 0.013 µg/mL (≈ 0.0361 µM); in experiment [4], 0.2 µg/mL (≈ 0.555 µM); in [5], 0.05 µg/mL (≈ 0.139 µM). In addition, the MIC in experiment [6] amounted to 0.025 µg/mL (≈ 0.0694 µM); in [7], 0.05 µg/mL (≈ 0.139 µM); with Escherichia coli Vogel, 0.4 µg/mL (≈ 1.11 µM); in [8] it was 0.05 µg/mL (≈ 0.139 µM).

Turning to `CC1(CN)CCN(c2c(F)cc3c(=O)c(C(=O)O)cn(C4CC4)c3c2Cl)C1` (stereo not shown) [Example 4, 7-[3-(Aminomethyl)-3-methyl-1-pyrrolidinyl]-8-chloro-1-cyclopropyl-6-fluoro-1,4-dihydro-4-oxo-3-quinolinecarboxylic acid], the MIC in experiment [1] is 0.05 µg/mL (≈ 0.127 µM); in the experiment on Proteus rettgeri M 1771, 0.1 µg/mL (≈ 0.254 µM); in experiment [2], 0.2 µg/mL (≈ 0.508 µM); in [3] it was at most 0.003 µg/mL; in experiment [4] it was 0.05 µg/mL (≈ 0.127 µM); in [5] it was 0.013 µg/mL (≈ 0.033 µM). The MIC in experiment [6] was at most 0.003 µg/mL; in experiment [7] it was 0.013 µg/mL (≈ 0.033 µM); in the experiment with Escherichia coli Vogel it was 0.025 µg/mL (≈ 0.0635 µM); in experiment [8], 0.013 µg/mL (≈ 0.033 µM).
